# Results reported in patent US20060293343A1, “Pyrimidine derivatives” (Asahi Kasei Pharma Corporation, priority 2005, published 2006).
# What was measured:
# PDE4 = tested on: T1, PDE4; test: Inhibitory action of PDE4 enzyme activity (PDE4 purified from U937 cells); format: biochemical; settings: PDE4 fraction purified from U937 cells; [3H]-cAMP substrate; 30° C., 10 minutes
# T1 construct: The PDE4 enzyme was purified from U937 cells that are the cells derived from lymphoma
# Description: (1) Purification of PDE4 from U937 Cells
# The PDE4 enzyme was purified from U937 cells that are the cells derived from lymphoma. U937 cells were suspended in buffer solution A (20 mM Tris-HCl(pH 6.5), 1 mM MgCl2, 0.1 mM EGTA, 3 mM 2-mercaptoethanol) containing protease. inhibitor cocktail (manufactured by Sigma Co.), and a soluble fraction was obtained by centrifugation after ultrasonic disintegration (100,000 G, 30 minutes, 4° C.). […] Each fraction was tested for the cAMP metabolized PDE activity to identify the fractions containing PDE4 enzyme.
# (2) Measurement of Inhibitory Activity of PDE4 Enzyme Activity
# A desired concentration of the test compound was allowed to react in a reaction mixture (100 μL; 40 mM Tris-HCl (pH 7.4), 5 MM MgCl2, 4 mM 2-mercaptoethanol, […] cAMP, 0.83 μCi [^3H]-cAMP and PDE4 fraction) at 30° C. for 10 minutes. The enzyme reaction was stopped by adding 25 μL of trichloroacetic acid to the reaction mixture. The reaction solution was charged on a neutral alumina column equilibrated with 0.1 M of 2-[[tris(hydroxylmethyl)methyl]-amino]-1-ethanesulfonic acid (TES) buffer (pH 8.0) and, after washing the column with a sufficient amount of 0.1 M TES buffer solution, the column was eluted with 2N NaOH. A 500 μL aliquot of the eluate containing [^3H]-5′AMP product was filled in a scintillation vial containing the scintillation cocktail (5 ml, manufactured by Perkin Elmer Co.) to measure radioactivity. […] The inhibitory action of PDE4 enzyme activity was expressed by IC50 (nM). Ex. No. in Table 8 denotes the example No.
# [1] = tested on: TNF-α production induced by LPS; test: Inhibitory action of TNF-α production (in vivo) induced by LPS using mouse; settings: C3H/He mouse; orally administered 60 minutes before LPS 10 μg intraperitoneally; plasma TNF-α 90 minutes after LPS; read-out: ED50 (mg/kg), suppression action of TNF-α production
# Description: C3H/He mouse (manufactured by Japan SLC Co., male) was used as a test animal. A desired concentration of the test sample was suspended in 0.5% methyl cellulose solution. The weight of the mouse was measured, and the test compound solution was orally administered at a dosage of 10 mL/kg while only 0.5% methyl cellulose was administered to the reference group. One group contained 5 to 7 mice. LPS was dissolved in physiological saline, and 10 μg was intraperitoneally administered to each mouse. The test compound was administered first, then LPS was administered 60 minutes thereafter. After 90 minutes, the blood was sampled from the large abdominal vein with the heparin, and a plasma was obtained by centrifugation. The content of TNF-α in the plasma was measured according to the protocol attached to TNF-α ELISA kit (manufactured by R & D System Co.). […] The suppression action of TNF-α production was represented by ED50 (mg/kg). Ex. No. in Table 11 denotes the example No.
# [2] = tested on: TNF-α production in LPS-stimulated mouse mononuclear cells; test: Inhibitory action of TNF-α production using mouse mononuclear cells (in vitro); format: cell-based; settings: mouse mononuclear cells from peripheral blood of C3H/He mouse; LPS 5 μg/mL, 21 hours; TNF-α ELISA; read-out: IC50 (nM), suppression action of TNF-α production
# Description: Mouse mononuclear cells were isolated from the peripheral blood of C3H/He mouse (manufactured by Japan SLC Co., male), and were suspended in a culture medium (trade name RPMI 1640 manufactured by Gibco Co.) containing 10% bovine serum. The cells were seeded in a 96 well plate as 50,000 cells/well, the test compound was added at a desired concentration, and the plate was allowed to stand in an incubator containing 5% CO2 at .37° C. for 15 minutes. LPS was added thereafter at a final concentration of 5 μg/mL, and the plate was allowed to stand in the incubator for 21 hours.
# The culture medium containing produced TNF-α was retrieved, and the amount of TNF-α was measured according to the protocol attached to mouse TNF-α ELISA kit (manufactured by R & D Systems Co.). […] The suppression action of TNF-α was expressed-by […] (nM). Ex. No. in Table 9 denotes the example No.
Compound,IC50 (PDE4) [nM],IC50 [2] [nM],ED50 [1] [mg/kg]
C=CCc1c(CC)nc(-c2ccc(CC)s2)nc1Nc1ccc2cc(C(=O)O)ccc2c1 [Example 201],133,,
CCc1nc(-c2cc(C)c(Br)s2)nc(Nc2ccc(CC(=O)O)cc2)c1CC [Example 239],,,22
CCc1c(C)nc(-c2ccsc2)nc1Nc1ccc(C(=O)O)cc1 [Example 18],1680,202,37
CCc1c(C)nc(-c2ccc(C)s2)nc1Nc1ccc(CC(=O)O)cc1 [Example 205],,,21
CCc1nc(-c2ccc(Br)s2)nc(Nc2ccc(C(=O)O)cc2)c1CC [Example 220],,59,41
CCc1nc(-c2ccco2)nc(Nc2ccc(C(=O)O)cc2)c1CC [Example 186],,80,
CCc1nc(-c2ccc(C)s2)nc(Nc2ccc(CC(=O)O)cc2)c1CC [Example 110],,,31
CCc1c(C)nc(-c2ccc(F)s2)nc1Nc1ccc(CC(=O)O)cc1F [Example 376],,,12
C=CCc1c(CCC)nc(-c2ccsc2)nc1Nc1ccc(C(=O)O)cc1 [Example 68],,247,
C=CCc1c(C)nc(-c2ccsc2)nc1Nc1ccc(C(=O)O)cc1 [Example 11],1170,790,26
CCc1nc(-c2cc(C)c(I)s2)nc(Nc2ccc(CC(=O)O)cc2)c1CC [Example 293],,,18
CCc1nc(-c2ccc(OC)s2)nc(Nc2ccc(C(=O)O)cc2)c1CC [Example 80],,73,
CCc1nc(-c2ccc(Cl)s2)nc(Nc2ccc(CC(=O)O)cc2)c1CC [Example 289],,,18
CCc1c(C)nc(-c2ccc(I)s2)nc1Nc1ccc(CC(=O)O)cc1F [Example 345],,,37
CCc1c(C)nc(-c2ccc(F)s2)nc1Nc1ccc(CC(=O)O)cc1 [Example 373],,,19
CCc1nc(-c2ccco2)nc(Nc2ccc3cc(C(=O)O)ccc3c2)c1CC [Example 188],59,46,
CCc1c(C)nc(-c2cccs2)nc1Nc1ccc(CC(=O)O)cc1F [Example 344],,,27
CCc1nc(-c2ccc(SC)s2)nc(Nc2ccc(CC(=O)O)cc2)c1CC [Example 128],,,24
CCc1nc(-c2ccc(C)s2)nc(Nc2ccc3cc(C(=O)O)ccc3c2)c1CC [Example 111],,58,15
Cc1nc(-c2ccc(Cl)s2)nc(Nc2ccc(CC(=O)O)cc2)c1CO [Example 386],,,50

Compound,IC50 (PDE4) [nM],IC50 [2] [nM],ED50 [1] [mg/kg]
CCc1c(C)nc(-c2ccsc2)nc1Nc1ccc2cc(C(=O)O)ccc2c1 [Example 20],191,289,
CCc1c(C)nc(-c2ccc(Br)s2)nc1Nc1ccc(CC(=O)NO)cc1 [Example 192],89,,
C=CCc1c(C)nc(-c2ccc(Cl)s2)nc1Nc1ccc(CC(=O)O)cc1 [Example 254],,,38
CCc1c(C)nc(-c2ccoc2)nc1Nc1ccc2cc(C(=O)O)ccc2c1 [Example 26],312,219,
C=CCc1c(CC)nc(-c2cc(OC)cs2)nc1Nc1ccc2cc(C(=O)O)ccc2c1 [Example 185],156,,
C=CCc1c(CC)nc(-c2ccoc2)nc1Nc1ccc(C(=O)O)cc1 [Example 103],,,37
CCCc1nc(-c2ccsc2)nc(Nc2ccc3cc(C(=O)O)ccc3c2)c1CC [Example 73],,211,
C=CCc1c(C)nc(-c2cc(C)c(Br)s2)nc1Nc1ccc(CC(=O)O)cc1 [Example 274],,,25
CCc1nc(-c2ccc(Br)s2)nc(Nc2ccc(CC(=O)O)cc2)c1CC [Example 221],,53,24
CCc1nc(-c2ccc(Cc3ccccc3)s2)nc(Nc2ccc3cc(C(=O)O)ccc3c2)c1CC [Example 234],,48,
C=CCc1c(C)nc(-c2cccs2)nc1Nc1ccc2cc(C(=O)O)ccc2c1 [Example 3],356,1900,
CCc1c(C)nc(-c2cc(C)c(I)s2)nc1Nc1ccc(CC(=O)O)cc1 [Example 292],,,25
CCc1nc(-c2ccc(OC)s2)nc(Nc2ccc3cc(C(=O)O)ccc3c2)c1CC [Example 82],90,57,
CCc1c(C)nc(-c2cccs2)nc1Nc1ccc2cc(C(=O)O)ccc2c1 [Example 7],409,267,
CCc1nc(-c2ccoc2)nc(Nc2ccc(C(=O)O)cc2)c1CC [Example 86],,67,8
CCc1nc(-c2cc(C)c(Br)s2)nc(Nc2ccc(C(=O)O)cc2)c1CC [Example 238],,,20
C=CCc1c(C)nc(-c2ccc(Br)s2)nc1Nc1ccc(CC(=O)O)cc1 [Example 241],,,39
CCc1nc(-c2cccs2)nc(Nc2ccc3cc(C(=O)O)ccc3c2)c1CC [Example 85],76,29,
CCc1c(C)nc(-c2ccc(Cl)s2)nc1Nc1ccc(CC(=O)O)cc1 [Example 253],,504,14
C=CCc1c(C)nc(-c2ccoc2)nc1Nc1ccc2cc(C(=O)O)ccc2c1 [Example 23],633,2110,

# More lines, main results first:
IC50 (PDE4) [nM],IC50 [2] [nM],Compound,ED50 [1] [mg/kg]
,57,CCc1c(C)nc(-c2ccc(Br)s2)nc1Nc1ccc(CC(N)=O)cc1 [Example 181],
,34,CCc1c(C)nc(-c2cccs2)nc1Nc1ccc(CC(=O)Nc2ccccc2OC)cc1 [Example 113],
,249,CCc1c(C)nc(-c2ccc(C(=O)OC)s2)nc1Nc1ccc(C(=O)O)cc1 [Example 50],
3250,865,CCc1c(C)nc(-c2ccoc2)nc1Nc1ccc(C(=O)O)cc1 [Example 24],
2940,4930,CCc1c(C)nc(-c2cccs2)nc1Nc1ccc(CC(=O)O)cc1 [Example 6],
,85,CCc1nc(-c2ccc(SC)s2)nc(Nc2ccc3cc(C(=O)O)ccc3c2)c1CC [Example 129],
845,,CCc1nc(-c2cc(C)c(C)s2)nc(Nc2ccc3cc(C(=O)O)ccc3c2)c1CC [Example 155],
117,,CCc1c(C)nc(-c2ccc(SC)s2)nc1Nc1ccc2cc(C(=O)O)ccc2c1 [Example 79],
116,,C=CCc1c(CC)nc(-c2ccoc2)nc1Nc1ccc2cc(C(=O)O)ccc2c1 [Example 105],
,10,CCc1c(C)nc(-c2cccs2)nc1Nc1ccc(CC(=O)NO)cc1 [Example 116],12
90,44,C=CCc1c(CC)nc(-c2ccco2)nc1Nc1ccc2cc(C(=O)O)ccc2c1 [Example 191],
70,39,CCc1c(C)nc(-c2cc(Br)cs2)nc1Nc1ccc(CC(=O)NO)cc1 [Example 193],
105,,CCc1ccc(-c2nc(CC)c(CC)c(Nc3ccc4cc(C(=O)O)ccc4c3)n2)s1 [Example 198],
1390,265,CCc1c(C)nc(-c2cccs2)nc1Nc1ccc(C(=O)O)cc1 [Example 5],
192,,C=CCc1c(CC)nc(-c2ccc(C)s2)nc1Nc1ccc2cc(C(=O)O)ccc2c1 [Example 209],
,86,CCc1c(C)nc(-c2ccc(OC)s2)nc1Nc1ccc(CC(=O)NO)cc1 [Example 203],
,80,CCc1nc(-c2cc(C)c(C)o2)nc(Nc2ccc3cc(C(=O)O)ccc3c2)c1CC [Example 157],
,239,C=CCc1c(CC)nc(-c2ccc(OC)s2)nc1Nc1ccc(C(=O)O)cc1 [Example 54],
